Assay results: patent publication US20070059785A1, “Biomarkers in cancer” (SMITHKLINE BEECHAM CORPORATION, priority 2003, published 2007)
Entries after “also recorded” stand apart in the source; their conditions may differ.

Experiments:
[1] = test system: pAKT; test: Confocal microscopy of AU-565 cells exposed to epigen; assay type: cell-based, human; details: epigen and GW572016, confocal microscopy, results not shown
From the text: In response to NDF (Neu Differentiating Factor or Heregulin), these cells divide and multiply. AU565 cells were stained with antibodies to show total ERK, or stained with antibodies to show phosphorylated ERK (p-Erk).

[2] = test system: AKT; test: Western blot of p-AKT in HN5 cells; assay type: cell-based, human; details: HN5, 5 μM, 24 h serum-free
Protocol: (§1) The erbB2 overexpressing human breast adenocarcinoma cell line, BT474, was obtained from the American Type Culture Collection (Rockville, M, USA). […] The EGFR overexpressing LICR-LON-HN5 head and neck carcinoma cell line, HN5, was kindly provided by Helmout Modjtahedi at the Institute of Cancer Research, Surrey, U.K.
(§2) For IP Western blots, equivalent amounts of protein were precleared with Protein G Plus/Protein A agarose overnight at 4° C. Precleared lysates were then incubated overnight at 4° C. with specific antibodies. Immune complexes were precipitated with Protein G Plus/Protein A agarose beads, washed in RIPA buffer and then boiled in sample loading buffer. Steady state levels of total Erk1/2 and activated Erk1/2 (p-Erk) as well as total AKT protein and activated AKT (p-AKT) protein were assessed by Western blot. […] Proteins were transferred to Immobilon-P or nitrocellulose membranes. Efficiency and equal loading of proteins was evaluated by Ponceau S staining. Membranes were blocked for 1 hr in TBS (25 mM Tris-HCl, pH 7.4, 150 mM NaCl, 2.7 mM KCl) containing 4% (w/v) lowfat milk or 3% BSA (w/v). Membranes were then probed with specific antibodies recognizing target proteins. Proteins were visualized with the SUPERSIGNAL® West Femto Maximum sensitivity substrate kit (Pierce).

[3] = test system: AKT; test: Western blot of p-AKT in BT474 cells; assay type: cell-based, human; details: BT474, 1 μM, 24 h serum-free; not reversed by EGF
Protocol: as §1, §2
BT474 is an erbB2 overexpressing breast carcinoma line that also expresses EGFR, albeit at lower levels. […]

[4] = test system: pAKT; test: Clinical tumor biopsies, p-AKT by quantitative IHC
From the text: DAB (Dako) was used as the chromogen.
“pAKT” refers to phosphorylated AKT as measured by immunohistochemistry and reported in OD;

[5] = test system: HN5 cells; test: Apoptosis and growth of HN5 cells; assay type: cell-based, human; details: data not shown
[6] = test system: p-Erk1/2; test: Clinical tumor biopsies, p-ERK index by quantitative IHC; details: patient 364, head and neck cancer, 1600 mg/day, Day 21
Protocol: DAB (Dako) was used as the chromogen.
To quantify changes in Erk1/2 activation state, a p-Erk index was established for each biopsy. The p-Erk index was the product of the percentage of cells staining positive for p-Erk1/2 in the tissue section and the OD value for p-Erk1/2 immunoreactivity. Investigators preparing and analyzing tissue sections were blinded to both patient tumor type and response to therapy.
“pERK index” is calculated by multiplying the percentage of cells staining positive for p-Erk and the optical density (OD) score, ×100;

[7] = molecular target: T1, erbB2 (Homo sapiens, UniProt P04626); test: Clinical tumor biopsies, total erbB2 by IHC
T1 sequence (P04626 23-1255): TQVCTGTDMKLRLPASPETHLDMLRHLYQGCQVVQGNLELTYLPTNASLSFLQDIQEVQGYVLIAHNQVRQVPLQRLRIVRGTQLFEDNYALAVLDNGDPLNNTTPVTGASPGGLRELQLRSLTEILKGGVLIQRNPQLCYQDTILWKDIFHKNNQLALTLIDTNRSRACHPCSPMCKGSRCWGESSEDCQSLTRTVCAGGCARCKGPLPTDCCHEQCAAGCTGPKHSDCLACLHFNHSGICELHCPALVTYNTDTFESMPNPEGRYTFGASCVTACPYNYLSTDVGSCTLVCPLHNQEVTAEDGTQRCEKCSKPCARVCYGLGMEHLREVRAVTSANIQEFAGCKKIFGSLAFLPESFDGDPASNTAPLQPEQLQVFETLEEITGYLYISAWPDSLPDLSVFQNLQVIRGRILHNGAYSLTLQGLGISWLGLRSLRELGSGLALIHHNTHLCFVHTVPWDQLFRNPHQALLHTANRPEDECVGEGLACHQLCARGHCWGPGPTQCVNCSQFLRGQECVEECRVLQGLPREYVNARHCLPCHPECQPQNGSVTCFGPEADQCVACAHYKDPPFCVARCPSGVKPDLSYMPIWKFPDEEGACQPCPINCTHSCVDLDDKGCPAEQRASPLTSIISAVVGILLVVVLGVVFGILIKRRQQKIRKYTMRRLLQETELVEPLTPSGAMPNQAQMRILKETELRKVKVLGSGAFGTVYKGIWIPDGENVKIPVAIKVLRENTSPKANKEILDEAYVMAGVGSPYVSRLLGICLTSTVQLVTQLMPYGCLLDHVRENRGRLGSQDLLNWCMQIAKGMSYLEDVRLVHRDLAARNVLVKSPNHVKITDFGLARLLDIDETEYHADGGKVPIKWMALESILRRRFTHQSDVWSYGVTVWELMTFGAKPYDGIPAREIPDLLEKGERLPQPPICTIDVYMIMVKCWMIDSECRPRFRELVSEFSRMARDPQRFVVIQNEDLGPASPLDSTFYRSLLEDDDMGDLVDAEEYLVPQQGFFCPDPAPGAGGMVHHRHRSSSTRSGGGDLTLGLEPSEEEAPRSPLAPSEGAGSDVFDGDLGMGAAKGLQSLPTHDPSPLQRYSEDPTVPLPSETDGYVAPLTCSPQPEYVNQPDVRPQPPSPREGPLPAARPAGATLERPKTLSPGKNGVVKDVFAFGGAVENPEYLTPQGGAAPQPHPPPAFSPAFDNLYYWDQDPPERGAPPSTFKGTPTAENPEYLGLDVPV
From the text: All subjects provided written informed consent.
“erbB2” refers to total erbB2 as measured by immunohistochemistry and reported in OD;

[8] = molecular target: T1, erbB2; test: IP Western/Western blot of p-Tyr/erbB2 and total erbB2 in Hb4a cells; assay type: cell-based; set-up: endogenous in cells; host or cells: Hb4a; details: 5 μM, 72 h, not reversed by EGF
Protocol: The EGFR overexpressing LICR-LON-HN5 head and neck carcinoma cell line, HN5, was kindly provided by Helmout Modjtahedi at the Institute of Cancer Research, Surrey, U.K.
(§3) Protein concentrations were determined using a modification of the Bradford method (Bio-Rad Laboratory).
as §2, with “Proteins were visualized with the SUPERSIGNAL® West Femto Maximum sensitivity substrate kit (Pierce).” left out
Steady state levels of activated erbB2 and EGFR (p-Tyr/ErbB2 and p-Tyr/EGFR); total erbB2 and EGFR; activated Erk1/2 (p-Erk1/2) and total Erk1/2 were assessed by either IP Western or Western blot.

[9] = test system: S1 cells; test: Cell cycle analysis (propidium iodide, flow cytometry), apoptosis of S1 cells; details: 5 μM, 72 h
Protocol: The percentage of cells in G1, S phase, and G2/M are indicated. The sub-G1 peak represents the apoptotic fraction.
Cells were harvested and fixed with 70% ethanol in PBS. Cell pellets were then resuspended in 0.5 ml PBS containing propidium iodide (50 μg/ml) and DNase-free RNase (100 μg/ml). Cell cycle analysis was performed using a BD Flow Cytometer (Becton Dickinson, San Jose, Calif., USA).
After 72 h, cell cycle analysis was performed using propidium iodide staining and flow cytometry as described in Materials and methods.

[10] = molecular target: T1, erbB2; test: IP Western blot of activated erbB2 (p-Tyr/erbB2) in S1 cells; assay type: cell-based; set-up: endogenous in cells; details: 72 h
Protocol: FIG. 1. […] The erbB2 overexpressing human breast adenocarcinoma cell line, BT474, was obtained from the American Type Culture Collection (Rockville, M, USA). […] The EGFR overexpressing LICR-LON-HN5 head and neck carcinoma cell line, HN5, was kindly provided by Helmout Modjtahedi at the Institute of Cancer Research, Surrey, U.K.
Cell cultures were maintained in a humidified atmosphere of 5% CO2 at 37° C.
as §3
as §2, with “Proteins were visualized with the SUPERSIGNAL® West Femto Maximum sensitivity substrate kit (Pierce).” left out

CS(=O)(=O)CCNCc1ccc(-c2ccc3ncnc(Nc4ccc(OCc5cccc(F)c5)c(Cl)c4)c3c2)o1 [GW572016, N-{3-Chloro-4-[(3-fluorobenzyl)oxy]phenyl}-6-[5-({[2-(methylsulfonyl)ethyl]amino}methyl)-2-furyl]-4-quinazolinamine]
p-erk in the nuclei vs cells treated with epigen alone [1]: comparatively less | p-AKT [2]: inhibited p-AKT in HN5 cells, the effect was smaller than in erbB2-overexpressing tumor cells | p-AKT [3]: completely inhibited | p-AKT OD ([4]; patient 361, breast, 1200 mg/d, day 21 (day 0: 36)): 24 OD | p-AKT OD ([4]; patient 362, adenocarcinoma unknown primary, 900 mg/d, day 21 (day 0: 61)): 81 OD | p-AKT OD ([4]; patient 363, sarcoma, 500 mg/d, day 21 (day 0: 19)): 32 OD | reduction of p-AKT ([4]; patient 364, 1600 mg/day, Day 21): 16% | p-AKT OD ([4]; patient 364, head & neck, 1600 mg/d, day 21 (day 0: 51)): 43 OD | p-AKT OD ([4]; patient 366, ovarian, 900 mg/d, day 21 (day 0: 22), aberrant staining, not considered valid): 47 OD | p-AKT OD ([4]; patient 367, adenocarcinoma unknown primary, 650 mg/d, day 21 (day 0: 35)): 25 OD | p-AKT OD ([4]; patient 369, head & neck, 1200 mg/d, day 21 (day 0: 24)): 7 OD | p-AKT OD ([4]; patient 371, breast, 900 mg/d, day 21 (day 0: 36)): 33 OD | p-AKT OD ([4]; patient 372, breast, 1200 mg/d, day 21 (day 0: 48)): 30 OD | pAKT ([4]; patient 425, inflammatory breast cancer, 1200 mg/d ditosylate salt, day 21 (day 0: 85)): 26 OD | intensity of pAkt staining, particularly in the nuclei ([4]; patient 425, post-treatment tumor sample, IHC, results not shown): greatly reduced | apoptosis [5]: significant apoptosis was not seen | cell growth [5]: growth arrest | decrease in p-Erk1/2 [6]: > 90% | total erbB2 protein ([7]; patient 361, 1200 mg/day): no effect | ErbB2 ([7]; patient 425, inflammatory breast cancer, 1200 mg/d ditosylate salt, day 21 (day 0: 62)): 68 OD | baseline amount of p-Tyr/erbB2 [8]: reduced; also recorded: decreased | increase in percentage of apoptotic cells vs vehicle [9]: 23 fold | percentage of cells in S phase and G2/M [9]: concomitant reduction | percentage of apoptotic cells (sub-G1 peak) ([9]; vehicle control 2%): 46% | inhibition of erbB2 tyrosine phosphorylation (p-Tyr/erbB2) ([10]; 500 nM): Partial inhibition | inhibition of erbB2 tyrosine phosphorylation (p-Tyr/erbB2) ([10]; 2.5 μM): complete inhibition
